The values below are quoted from earlier work in patent publication US20210085696A1, “FORMULATIONS COMPRISING CHELATORS, PERMEATION ENHANCERS AND HYDROXYETHYL CELLULOSE FOR TREATING OPHTHALMIC DISORDERS” (LIVIONEX, Inc., priority 2018, published 2021).

The conditions of the data set: @ 79° F.

With `CS(C)(=O)=O` [MSM, methylsulfonylmethane], the water solubility is reported as 34 % w/v.
